# Assay results: patent US9603841B2, “Vector delivery-based microbicides” (Rush University Medical Center, priority 2005, dated 2017)
# pEC50, pIC50: −log10 of the molar value. Read-outs that look alike come from different tables or passages of the source.
# Columns and labels:
# [1] = test system: spermatozoa; conditions: cited from earlier work
# [2] = target: human spermatozoa; experiment: Inhibition of fractionated NO23-SAMMA-induced acrosomal loss by protein kinase G inhibitor; assay type: cell-based; conditions: Ca2+-independent (absence of added extracellular Ca2+)
# Source text: NO23-SAMMA, whether fractionated or not, appears, at least in part, to act through release of nitric oxide. Fractionated NO23-SAMMA-induced acrosomal loss in the absence of added extracellular Ca^2+ is inhibited by the selective protein kinase G inhibitor KT5823 (see FIG. 6). […] Acrosomal loss in human spermatozoa in response to NO donors is inhibited by protein kinase G inhibitors ([…] et al., “Signaling pathway of nitric oxide-induced acrosome reaction in human spermatozoa”, Biol. Reprod., 64: 1708-12 (2001)). […] Inhibition of acrosomal loss by the selective protein kinase G inhibitor supports this contention.
# [3] = test system: spermatozoa; conditions: cited from earlier work; remark: listed apart in the source
# [4] = test system: human spermatozoa; experiment: Acrosomal loss (AL) in human spermatozoa; assay type: cell-based; conditions: for pEC50: Homo sapiens, Spermatozoa
# Description: Measurement of AL was carried out as described previously. […] All reactions were carried out in either the presence or absence of added extracellular Ca^2+ (1.28 mM). […] Data are expressed as the average % maximal response, based on the AL induced by a maximally stimulating concentration of the calcium ionophore A23187.
# Unless otherwise noted, acrosomal loss data were obtained from assays that included Ca^2+ in the extracellular medium. In contrast, acrosomal loss induced by NO donors occurs independent of Ca^2+. […] Although not wishing to be limited by theory, it appears that acrosomal loss in the presence of added extracellular Ca^2+ may be due to either or both moieties, whereas acrosomal loss in the absence of Ca^2+ is due entirely to the NO donor moiety.
# [5] = test system: hyaluronidase; experiment: Hyaluronidase activity inhibition; assay type: biochemical; conditions: 50 μM
# Description: Hyaluronidase activity was measured as described in Example 8 of U.S. Pat. No. 5,932,619. […] In contrast, the NO donor moiety of NO23-SAMMA, nitrooxypropanol, is nearly without effect.
# [6] = test system: spermatozoa; experiment: Sperm immobilization (modified Sander and Cramer), motile spermatozoa; assay type: cell-based; conditions: 10 mM
# Source text: Data are presented as the percentage of motile spermatozoa at each concentration of test agent. When possible, test outcomes were also reported as the concentration of agent in the semen sample that reduces motility by 50%.
# [7] = test system: HIV-1 Bee; experiment: HIV-1 infected primary lymphocytes, agent added after inoculation (p24, day 7); assay type: cell-based; conditions: agent added after 2 h inoculation and washing, p24 on day 7
# Description: HIV is sensitive to inhibition by the NO donor used to synthesize NO-SAMMA (nitrooxypropanol), although substantially less than to NO-SAMMA. […] Viral replication was measured on day 7 of incubation (p24 levels).
# [8] = 0.5 mM in 0.1 M PBS, pH 7.4, 37° C.; cited from earlier work
# [9] = test system: vaginal/cervical epithelial and other cells; conditions: cited from earlier work
# [10] = test system: C. trachomatis (serotype E/UW-5/CX); experiment: Infection of HeLa cells by C. trachomatis; assay type: cell-based, Chlamydia trachomatis; conditions: read-out: IC50 against C. trachomatis
# Description: Effect of NO-SAMMA against C. trachomatis. […] This was followed by inoculation of the monolayer with chlamydial elementary bodies. One hour after inoculation, free microbes and/or microbicide were removed by washing, and the HeLa cell cultures were incubated for an additional 48 hours at 37° C. Chlamydia-induced inclusions were measured by immunofluorescence, after reacting cultures with Kallsted chlamydia culture confirmation fluorescein-conjugated monoclonal antibody.
compound,measurement,setting,value
COC(=O)[C@@]1(OC)C[C@H]2O[C@]1(C)n1c3ccccc3c3c4c(c5c6ccccc6n2c5c31)C(=O)N(C)C4 [KT5823],inhibition of SAMMA-induced acrosomal loss,[1]; 2 μM,> 95%
same,pIC50,[2],6.15
same,effect on NO donor-induced acrosomal loss,[3]; 2 μM,not inhibited
"O=[N+]([O-])OCCCO [Nitrooxypropanol, 3-nitrooxy-1-propanol]",pEC50,"[4]; Ca2+-independent, read-out: ED50 acrosomal loss",6.92
same,pEC50,[4]; read-out: ED50 as a stimulus of acrosomal loss,6.92
same,Inhibition ± SEM (N = 4),[5],8 ± 1.8% at 50 μM
same,% Motile Spermatozoa av ± SEM (n = 4),[6],66 ± 0.5 at 10 mM %
same,IC50,"[7]; Human immunodeficiency virus 1, Lymphocyte",2540 µg/mL
same,concentration giving 80% reduction (printed in the 3-Log reduction column),[7],1017 (80% reduction) μg/mL
"CC/C(=C\C(=N/O)C(N)=O)C(C)[N+](=O)[O-] (racemic) [NOR-3, (±)-E-4-ethyl-2-[(E)-hydroxyimino]-5 nitro-3-hexenamide]",half-life,[8],about 30 minutes
O=c1c2nc(Br)n([C@@H]3O[C@@H]4CO[P@@](O)(=S)O[C@H]4[C@H]3O)c2nc2[nH]c(-c3ccccc3)cn12 [Rp-8-Br-PET-cGMPS],effect on NO donor-induced acrosomal loss,[3]; 0.35 μM,not inhibited
nonoxynol-9,lowest concentration that can injure cells,[9],about 0.0005%
CCCCCCOC(=O)[C@]1(O)C[C@@H]2O[C@@]1(C)n1c3ccccc3c3c4c(c5c6ccccc6n2c5c31)C(=O)NC4 [KT5720],effect on SAMMA-induced acrosomal loss,[1],not inhibited
O=c1onc2cnc3ccccc3n12 [ODQ],inhibition of SAMMA-induced acrosomal loss,[1]; 0.1 μM,~50%
NCCOB(c1ccccc1)c1ccccc1 [2-APB],effect on SAMMA-induced acrosomal loss,[1],not inhibited
nitroprusside,pIC50,[10],4.64
same,% maximal AL,[4]; 22 μM,74%
